In patent US20110059043A1, “CHEMICAL COMPOUNDS” (priority 2009, published 2011):

How the values were obtained:
[1] = tested on: HCV replicon cells Huh 9B; assay: HCV replicon assay (luciferase); type: cell-based; details: Hepatitis C virus, reduction of replicon level by 50% vs untreated cell control, 72 h
Procedure: (§1) HCV replicon cells Huh 9B (ReBlikon), containing the firefly luciferase—ubiquitin—neomycin phosphotransferase fusion protein and EMCV-IRES driven HCV polyprotein with cell culture adaptive mutations.
(§2) Cells were cultured at 37° C. in a 5% CO2 environment and split twice a week on seeding at 2×10^6 cells/flask on day 1 and 1×10^6 3 days later. G418 at 0.5 mg/ml was added to the culture medium but not the assay medium. The culture medium consisted of DMEM with […] glucose and glutamax (Gibco 61965-026) supplemented with 1×non-essential amino acids (Invitrogen 11140-035), penicillin (100 IU/ml)/streptomycin (100 μg/ml) (Invitrogen 15140-122), FCS (10%, 50 ml) and […] (Invitrogen 10131-027) & 10% Australian foetal calf serum (Invitrogen 10099-141).
(§3) A flask of cells was trypsinised and a cell count carried out. Cells were diluted to 100,000 cells/ml and 100 μl of this used to seed one opaque white 96-well plate (for the replicon assay) and one flat-bottomed clear plate (for the tox assay) for every five compounds to be tested for IC50. Wells G12 and H12 were left empty in the clear plate as the blank. Plates were then incubated at 37° C. in a 5% CO2 environment for 24 h.
(§4) On the following day compound dilutions are made up in medium at twice their desired final concentration in a clear round bottomed plate. All dilutions have a final DMSO concentration of 1%.
(§5) Once the dilution plate had been made up, controls and compounds were transferred to the assay plates (containing the cells) at 100 μl/well in duplicate wells. Exception: no compound was added to wells A1 and A2 of either plate and 100 μl of 1% DMSO was added to these instead. Plates were then incubated at 37° C. with 5% CO2 for 72 h.
At the end of the incubation time, the cells in the white plate were harvested by washing in PBS (100 μL per well) and gently tapping dry before addition of […] of lysis buffer (25 mM tris-phosphate, 8 mM MgCl2, 1 mM DTT, 1% Triton X-100, 15% glycerol. pH to 7.8 using KH2PO4 prior to triton and glycerol addition. Substrate was prepared: 23.5 mM beetle luciferin (Promega E1603), 26 mM ATP (Sigma O-2060) in […] Tris buffer pH 7.8 aliquoted and stored at −80° C. was thawed and diluted 1:50 in luciferase assay buffer (20 mM Tricine (Sigma T-0377), 1.07 mM magnesium carbonate hydroxide (Sigma M-5671), 0.1 mM EDTA (Sigma E-5134), 2.67 mM MgSO4(BDH 101514Y), 33.3 mM dithiothreitol (Sigma 150460) pH 7.8).
The M injector of the microplate luminometer (Lmax, Molecular Devices) was primed with 5×300 μl injections of the diluted substrate. After 5-60 min incubation in lysis buffer at room temperature, a plate was inserted into the luminometer and 100 μl luciferase assay reagent was added by the injector on the luminometer. The signal was measured using a 1 second delay followed by a 4 second measurement programme. The IC50, the concentration of the drug required for reducing the replicon level by 50% in relation to the untreated cell control value, can be calculated from the plot of the percentage reduction of the luciferase activity vs. drug concentration.

[2] = target: T1, Recombinant HCV polymerase (BK strain) (Hepatitis C virus genotype 1b, UniProt P26663); assay: HCV polymerase enzyme assay (radiometric [33P]-UTP incorporation); type: biochemical, HCV 1b
T1 construct: Recombinant HCV polymerase (BK strain) was expressed and purified from E. coli with a 21 amino acid C-terminal deletion; His6; made in house; host or cells: E. coli
Procedure: Compounds were tested for inhibition of HCV polymerase using a radiometric [^33P]-UTP incorporation assay and a biotinylated U13:PolyA primer:template RNA substrate.
Recombinant HCV polymerase (BK strain) was expressed and purified from E. coli with a 21 amino acid C-terminal deletion and a His6-tag. The general assay buffer consisted of 20 mM Tris (pH 7.5), 25 mM KCl, 5 mM MgCl2, 3 mM DTT, 0.5 mg/ml BSA, 0.01% Tween20. The standard reaction, in 96 well plates, contained 10 μl of diluted compound, 50 μl of substrate and 40 μl of enzyme. Compounds, supplied as 10 mM stocks in DMSO, were diluted initially in neat DMSO, and subsequently buffer was added to give a DMSO concentration of 30%; 10 μl of this was added to the assay plate to give a final concentration in the 100 μl assay of 3% DMSO. The biotinylated U13:PolyA RNA substrate was pre-annealed with 40 μM 5′-biotinylated U13 (Dharmacon) and 213 μg/ml PolyA (Amersham Biosciences) in water incubated at 70° C. for 5 minutes before being cooled on ice. Substrate (50 μl) was added in buffer to give a final concentration in the 100 μl assay of 125 nM biotinylated U13:0.63 μg/ml PolyA and 200 nM UTP with 0.4 μCi [^33P]-UTP per well (Perkin Elmer). The reaction was initiated by the addition of 40 μl of enzyme in buffer to give 100 nM final concentration. The reaction was incubated at 25° C. for 100 minutes and then stopped by addition of 100 μl of 100 mM EDTA. The samples were then transferred to 96 well Streptavidin-coated FlashPlates (Perkin Elmer) and incubated at room temperature for ˜1 hour to allow binding to occur. The plates were then washed three times with phosphate-buffered saline containing 0.05% Tween20 in an automated plate washer to remove unincorporated [^33P]-UTP, and then counted in a
Each plate included a set of positive controls (no compound, maximum signal) and negative controls (no enzyme, minimum signal) and in each run at least one reference is compound was included to validate the assay. The IC50, concentration required to inhibit the enzyme activity by 50%, was calculated using an 8-point IC50 curve and fitted using the program XLfit (IDBS).

[3] = tested on: HCV replicon cells Huh 9B; type: cell-based; details: concentration reducing total cell area by 50% relative to DMSO controls; 72 h
Procedure: as §1, §2, §3, §4, §5
The clear plate was stained with 100 μl 0.5% methylene blue in 50% ethanol at room temperature for lh, followed by solvation of the absorbed methylene blue in 100 μl per well of 1% lauroylsarcosine. Absorbance of the plate was measured on a microplate spectrophotometer (Molecular Devices) and the absorbance for each concentration of compound expressed as a proportion of the relative DMSO control. The TD50, the concentration of drug required to reduce the total cell area by 50% relative to the DMSO controls, can be calculated by plotting the absorbance at 620 nm minus background against drug concentration.

T1 sequence (P26663 2420-2989): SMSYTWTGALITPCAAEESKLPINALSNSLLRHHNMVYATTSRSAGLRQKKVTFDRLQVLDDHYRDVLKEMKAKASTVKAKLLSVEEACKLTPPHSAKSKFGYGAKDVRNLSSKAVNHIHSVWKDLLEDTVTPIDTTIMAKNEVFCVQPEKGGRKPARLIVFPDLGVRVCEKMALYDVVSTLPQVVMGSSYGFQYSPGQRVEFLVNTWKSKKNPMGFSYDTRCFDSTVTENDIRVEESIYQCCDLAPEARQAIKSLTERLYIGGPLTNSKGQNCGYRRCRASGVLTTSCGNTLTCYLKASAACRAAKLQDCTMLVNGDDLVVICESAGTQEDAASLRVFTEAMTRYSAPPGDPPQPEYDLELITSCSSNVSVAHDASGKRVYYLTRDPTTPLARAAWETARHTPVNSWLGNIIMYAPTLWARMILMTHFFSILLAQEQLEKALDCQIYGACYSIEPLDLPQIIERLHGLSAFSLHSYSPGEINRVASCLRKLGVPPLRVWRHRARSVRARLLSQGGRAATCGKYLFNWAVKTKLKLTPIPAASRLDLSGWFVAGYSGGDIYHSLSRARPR

| SMILES | IC50 [1] [nM] | IC50 [2] [nM] | Replicon Assay Value TD50 [3] [µM] |
| --- | --- | --- | --- |
| CCOCCOc1ncc(F)cc1C(=O)N[C@@H]1N=C(c2c(Cl)cc(Cl)cc2Cl)c2ccccc2NC1=O [Example 66, (R)-2-(2-Ethoxyethoxy)-5-fluoro-N-(2-oxo-5-(2,4,6-trichlorophenyl)-2,3-dihydro-1H-benzo[e][1,4]diazepin-3-yl)nicotinamide] | 163 | 2220 | 16.686 |
| CCOCCOc1ncc(F)cc1C(=O)NC1N=C(c2c(Cl)cc(Cl)cc2OC)c2ccccc2NC1=O (stereo not drawn) [Example 55, N-(5-(2,4-Dichloro-6-methoxyphenyl)-2-oxo-2,3-dihydro-1H-benzo[e][1,4]diazepin-3-yl)-2-(2-ethoxyethoxy)-5-fluoronicotinamide] | 27 | 116 | 18.821 |
| COCCOc1ccc(F)cc1C(=O)NC1N=C(c2c(Cl)cccc2Cl)c2ccccc2NC1=O (stereo not drawn) [Example 48, N-(5-(2,6-Dichlorophenyl)-2-oxo-2,3-dihydro-1H-benzo[e][1,4]diazepin-3-yl)-5-fluoro-2-(2-methoxyethoxy)benzamide] | 703 | 155 | >25 |
| O=C(NC1N=C(c2c(Cl)cc(Cl)cc2Cl)c2ccccc2NC1=O)c1cc(Cl)ccc1OCC1CCCO1 (stereo not drawn) [Example 9, 5-Chloro-N-(2-oxo-5-(2,4,6-trichlorophenyl)-2,3-dihydro-1H-benzo[e][1,4]diazepin-3-yl)-2-((tetrahydrofuran-2-yl)methoxy)benzamide] | 610 | 296 | >25 |
| COCCOc1ncc(Cl)cc1C(=O)NC1N=C(c2c(Cl)cc(Cl)cc2Cl)c2ccccc2NC1=O (stereo not drawn) [Example 32, 5-Chloro-2-(2-methoxyethoxy)-N-(2-oxo-5-(2,4,6-trichlorophenyl)-2,3-dihydro-1H-benzo[e][1,4]diazepin-3-yl)nicotinamide] | 136 | 178 | >25 |
| COCCOc1ncc(Cl)cc1C(=O)NC1N=C(c2c(Cl)cc(Cl)cc2CN2CCOCC2)c2ccccc2NC1=O (stereo not drawn) [Example 51, 5-Chloro-N-(5-(2,4-dichloro-6-(morpholinomethyl)phenyl)-2-oxo-2,3-dihydro-1H-benzo[e][1,4]diazepin-3-yl)-2-(2-methoxyethoxy)nicotinamide] | 281 | 1230 | >25 |
| CCN(CCOC)c1ncc(F)cc1C(=O)NC1N=C(c2c(Cl)cc(Cl)cc2Cl)c2ccccc2NC1=O (stereo not drawn) [Example 43, 2-(Ethyl(2-methoxyethyl)amino)-5-fluoro-N-(2-oxo-5-(2,4,6-trichlorophenyl)-2,3-dihydro-1H-benzo[e][1,4]diazepin-3-yl)nicotinamide] | 787 | 204 | 23.97 |
| COCCCOc1ccc(Cl)cc1C(=O)NC1N=C(c2c(Cl)cc(Cl)cc2Cl)c2ccccc2NC1=O (stereo not drawn) [Example 1, 5-chloro-2-(3-methoxypropoxy)-N-(2-oxo-5-(2,4,6-trichlorophenyl)-2,3-dihydro-1H-benzo[e][1,4]diazepin-3-yl)benzamide] | 210 | 354 | >25 |
| COCCOc1ccc(C(C)=O)cc1C(=O)NC1N=C(c2c(Cl)cc(Cl)cc2Cl)c2ccccc2NC1=O (stereo not drawn) [Example 18, 5-Acetyl-2-(2-methoxyethoxy)-N-(2-oxo-5-(2,4,6-trichlorophenyl)-2,3-dihydro-1H-benzo[e][1,4]diazepin-3-yl)benzamide] | 876 | 385 | 15.802 |
| COCCN(c1ncc(F)cc1C(=O)NC1N=C(c2c(Cl)cc(Cl)cc2Cl)c2ccccc2NC1=O)C(C)C (stereo not drawn) [Example 44, 5-Fluoro-2-(isopropyl(2-methoxyethyl)amino)-N-(2-oxo-5-(2,4,6-trichlorophenyl)-2,3-dihydro-1H-benzo[e][1,4]diazepin-3-yl)nicotinamide] | 2650 | 1330 | 23.394 |
| CCC(=O)NCCCOc1ccc(Cl)cc1C(=O)NC1N=C(c2c(Cl)cc(Cl)cc2Cl)c2ccccc2NC1=O (stereo not drawn) [Example 26, 5-Chloro-N-(2-oxo-5-(2,4,6-trichlorophenyl)-2,3-dihydro-1H-benzo[e][1,4]diazepin-3-yl)-2-(3-propionamidopropoxy)benzamide] | 1620 | 647 | 12.354 |
| COCCOc1ncc(F)cc1C(=O)NC1N=C(c2c(Cl)cc(Cl)cc2CN2CCOCC2)c2ccccc2NC1=O (stereo not drawn) [Example 52, N-(5-(2,4-Dichloro-6-(morpholinomethyl)phenyl)-2-oxo-2,3-dihydro-1H-benzo[e][1,4]diazepin-3-yl)-5-fluoro-2-(2-methoxyethoxy)nicotinamide] | 129 | 605 | 24.829 |
| O=C(NC1N=C(c2c(Cl)cc(Cl)cc2Cl)c2ccccc2NC1=O)c1cc(Cl)ccc1OCCOc1ccccc1 (stereo not drawn) [Example 11, 5-Chloro-N-(2-oxo-5-(2,4,6-trichlorophenyl)-2,3-dihydro-1H-benzo[e][1,4]diazepin-3-yl)-2-(2-phenoxyethoxy)benzamide] | 1150 | 864 | >25 |
| COCCOc1ccc(OC(F)(F)F)cc1C(=O)NC1N=C(c2c(Cl)cc(Cl)cc2Cl)c2ccccc2NC1=O (stereo not drawn) [Example 19, 2-(2-Methoxyethoxy)-N-(2-oxo-5-(2,4,6-trichlorophenyl)-2,3-dihydro-1H-benzo[e][1,4]diazepin-3-yl)-5-(trifluoromethoxy)benzamide] | 645 | 2150 | >25 |
